Test results: patent publication US20100168079A1 (priority 2008, published 2010)

Columns and labels:
human S1P1 receptors = target: T1, human S1P1 receptors (Homo sapiens, UniProt P21453); test: Human S1P1 Receptor Calcium FLIPR Antagonist Assay (HeLa Gα16 S1P1); type: cell-based; conditions: relative antagonism of Ca2+ signal evoked by probing agonist GNF-AC-1 at EC80; HeLa-S1P1/Gα16 cells
T1 construct: myc (N); expressed in transfected cells; host or cells: HeLa (human cervix carcinoma, ATCC CCL2), HeLa-S1P1/Gα16 cell clone 1
How it was run: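 HeLa Gα16 cells expressing S1P1 loaded for calcium fluorescence on FLIPR; compounds added in HBSS with 0.1% BSA, then agonist at EC80 20-30 min later. IC50 from (Fmax-Fmin)/Fmin versus log compound concentration.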

circulating lymphocytes = test: Measurement of Circulating Lymphocytes; type: in vivo, Rats (Lewis strain, male); conditions: Rattus norvegicus, Lymphocyte; male Lewis rats, 14 hours after oral 30 mg/kg, compared to vehicle-only group; mean±SEM; read-out: Residual Lymphocyte Counts 14 hours after 30 mg/kg p.o. dosing
Procedure: The compounds of formula (I) typically induce the depletion of blood lymphocyte as may be determined in the assay described below. Moreover, compounds of formula (I) are typically efficacious in the said assay also when administered via the per oral route of administration.
Measurement of Circulating Lymphocytes:
The test compounds (or salts thereof) are dissolved in a vehicle such as water, saline, PEG (polyethylene glycol) 200, or PBS (phosphate buffered saline). Rats (Lewis strain, male, 6-12 weeks old) are administered up to 100 mg/kg of the test compounds in 2 ml/kg vehicle via per oral or subcutaneous application. The vehicle or a reference salt and FTY720 (0.3 mg/kg) are included as negative and positive controls, respectively.
Blood is collected from the sublingual vein before and 2, 8 and 24 hours or 14, 18 and 24 hours after the test compound administration under short isoflurane anesthesia. Whole blood samples are subjected to hematology analysis. Peripheral lymphocyte counts are determined using an automated analyzer. The Haemathology System uses a combination of light scatter, cytochemical staining and nuclear density on two independent channels to measure the total and differential white cell counts. Two to four rats are used to assess the lymphocyte depletion activity of each compound screened. The data are presented as mean±SEM.

T1 sequence (P21453 whole entry): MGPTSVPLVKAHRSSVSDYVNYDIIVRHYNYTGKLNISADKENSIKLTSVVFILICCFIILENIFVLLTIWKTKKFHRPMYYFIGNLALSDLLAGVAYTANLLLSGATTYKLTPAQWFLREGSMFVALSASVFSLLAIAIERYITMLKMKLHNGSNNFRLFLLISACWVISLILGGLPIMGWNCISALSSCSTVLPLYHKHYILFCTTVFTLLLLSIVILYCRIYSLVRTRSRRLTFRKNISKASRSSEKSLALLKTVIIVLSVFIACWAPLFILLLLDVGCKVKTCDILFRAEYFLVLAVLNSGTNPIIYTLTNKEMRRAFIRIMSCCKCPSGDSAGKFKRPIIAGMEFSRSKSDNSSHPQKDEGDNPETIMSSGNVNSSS

SMILES | IC50 (human S1P1 receptors) | response vs control in vivo at 30 mg/kg (circulating lymphocytes)
Cc1cc(C(C)Nc2cccc(-c3cc(C)c(C(=O)NC4(C(=O)O)CC4)c(C)c3)c2)ccc1Cl (stereo not drawn) [Example 7, 1-({3′-[1-(4-Chloro-3-methyl-phenyl)-ethylamino]-3,5-dimethyl-biphenyl-4-carbonyl}-amino)-cyclopropanecarboxylic acid] | 2 nM | 14.8%
Cc1cc([C@@H](C)Nc2cccc(-c3cc(C)c(C(=O)NC4(C(=O)O)CC4)c(C)c3)c2)ccc1Cl [Example 8, 1-({3′-[(R)-1-(4-Chloro-3-methyl-phenyl)-ethylamino]-3,5-dimethyl-biphenyl-4-carbonyl}-amino)-cyclopropanecarboxylic acid] | 2 nM | 16.7%
CCC(Nc1cccc(-c2cc(C)c(C(=O)N[C@@H](C)C(=O)O)c(C)c2)c1)c1ccc(Cl)c(Cl)c1 (stereo partly drawn) [Example 20, (S)-2-({3′-[1-(3,4-Dichloro-phenyl)-propylamino]-3,5-dimethyl-biphenyl-4-carbonyl}-amino)-propionic acid] | 8 nM | 18.7%
Cc1cc(C(C)Nc2ccc(F)c(-c3cc(C)c(C(=O)N[C@@H](C)C(=O)O)c(C)c3)c2)ccc1Cl (stereo partly drawn) [Example 22, (S)-2-({5′-[1-(4-Chloro-3-methyl-phenyl)-ethylamino]-2′-fluoro-3,5-dimethyl-biphenyl-4-carbonyl}-amino)-propionic acid] | 2 nM | 18.7%
Cc1cc([C@@H](C)Nc2ccc(F)c(-c3cc(C)c(C(=O)N[C@@H](C)C(=O)O)c(C)c3)c2)ccc1Cl [Example 23, (S)-2-({5′-[(R)-1-(4-Chloro-3-methyl-phenyl)-ethylamino]-2′-fluoro-3,5-dimethyl-biphenyl-4-carbonyl}-amino)-propionic acid] | 1 nM | 17.4%
CCC(Nc1ccc(F)c(-c2cc(C)c(C(=O)N[C@@H](C)C(=O)O)c(C)c2)c1)c1ccc(Cl)c(C)c1 (stereo partly drawn) [Example 24, (S)-2-({5′-[1-(4-Chloro-3-methyl-phenyl)-propylamino]-2′-fluoro-3,5-dimethyl-biphenyl-4-carbonyl}-amino)-propionic acid] | 1 nM | 16.8%
CCC(Nc1ccc(F)c(-c2cc(C)c(C(=O)NC3(C(=O)O)CC3)c(C)c2)c1)c1ccc(Cl)c(C)c1 (stereo not drawn) [Example 25, 1-({5′-[1-(4-Chloro-3-methyl-phenyl)-propylamino]-2′-fluoro-3,5-dimethyl-biphenyl-4-carbonyl}-amino)-cyclopropanecarboxylic acid] | 2 nM | 15%
Cc1cc(C(C)Nc2ccc(F)c(-c3cc(C)c(C(=O)NC4(C(=O)O)CC4)c(C)c3)c2)ccc1Cl (stereo not drawn) [Example 26, 1-({5′-[1-(4-Chloro-3-methyl-phenyl)-ethylamino]-2′-fluoro-3,5-dimethyl-biphenyl-4-carbonyl}-amino)-cyclopropanecarboxylic acid] | 1 nM | 12.9%
Cc1cc([C@@H](C)Nc2cccc(-c3cc(C)c(C(=O)N(C)[C@@H](C)C(=O)O)c(C)c3)c2)ccc1Cl [Example 73] | 4 nM | 16.6%
Cc1cc(C(Nc2cccc(-c3cc(C)c(C(=O)N[C@@H](C)C(=O)O)c(C)c3)c2)C(F)(F)F)ccc1Cl (stereo partly drawn) [Example 74, (S)-2-({3′-[1-(4-Chloro-3-methyl-phenyl)-2,2,2-trifluoro-ethylamino]-3,5-dimethyl-biphenyl-4-carbonyl}-amino)-propionic acid] | 8 nM | 15.5%
Cc1cc(C(Nc2cccc(-c3cc(C)c(C(=O)N[C@@H](C)C(=O)O)c(C)c3)c2)C(F)F)ccc1Cl (stereo partly drawn) [Example 75, (S)-2-({3′-[1-(4-Chloro-3-methyl-phenyl)-2,2-difluoro-ethylamino]-3,5-dimethyl-biphenyl-4-carbonyl}-amino)-propionic acid] | 6 nM | 19.4%
Cc1cc([C@@H](C)Nc2cccc(-c3cc(C)c(C(=O)N(C)C4(C(=O)O)CC4)c(C)c3)c2)ccc1Cl [Example 81, 1-({3′-[(R)-1-(4-Chloro-3-methyl-phenyl)-ethylamino]-3,5-dimethyl-biphenyl-4-carbonyl}-methyl-amino)-cyclopropanecarboxylic acid] | 1 nM | 15.4%
Cc1cc(C(C)(C)Nc2cccc(-c3cc(C)c(C(=O)N[C@@H](C)C(=O)O)c(C)c3)c2)ccc1Cl [Example 82, (S)-2-({3′-[1-(4-Chloro-3-methyl-phenyl)-1-methyl-ethylamino]-3,5-dimethyl-biphenyl-4-carbonyl}-amino)-propionic acid] | 3 nM | 10.8%
Cc1cc(C(C)(C)Nc2cccc(-c3cc(C)c(C(=O)N(C)[C@@H](C)C(=O)O)c(C)c3)c2)ccc1Cl [Example 83, (S)-2-({3′-[1-(4-Chloro-3-methyl-phenyl)-1-methyl-ethylamino]-3,5-dimethyl-biphenyl-4-carbonyl}-methyl-amino)-propionic acid] | 2 nM | 15.2%
Cc1cc(C(C)(C)Nc2cccc(-c3cc(C)c(C(=O)NC4(C(=O)O)CC4)c(C)c3)c2)ccc1Cl [Example 84, 1-({3′-[1-(4-Chloro-3-methyl-phenyl)-1-methyl-ethylamino]-3,5-dimethyl-biphenyl-4-carbonyl}-amino)-cyclopropanecarboxylic acid] | 2 nM | 18.6%
Cc1cc(C(C)(C)Nc2cccc(-c3cc(C)c(C(=O)N(C)C4(C(=O)O)CC4)c(C)c3)c2)ccc1Cl [Example 85, 1-({3′-[1-(4-Chloro-3-methyl-phenyl)-1-methyl-ethylamino]-3,5-dimethyl-biphenyl-4-carbonyl}-methyl-amino)-cyclopropanecarboxylic acid] | 11 nM | 14.7%
Cc1cc([C@@H](C)Nc2cccc(-c3cc(C)c(C(=O)NC4(C(=O)O)CC4)c(C)c3)c2)cc(C)c1Cl [Example 99, 1-({3′-[(R)-1-(4-Chloro-3,5-dimethyl-phenyl)-ethylamino]-3,5-dimethyl-biphenyl-4-carbonyl}-amino)-cyclopropanecarboxylic acid] | 1 nM | 15.5%
Cc1cc([C@@H](C)Nc2cccc(-c3cc(C)c(C(=O)N[C@@H](C)C(=O)O)c(C)c3)c2)cc(C)c1Cl [Example 100, (S)-2-({3′-[(R)-1-(4-Chloro-3,5-dimethyl-phenyl)-ethylamino]-3,5-dimethyl-biphenyl-4-carbonyl}-amino)-propionic acid] | 1 nM | 20.9%
Cc1cc(C(Nc2cccc(-c3cc(C)c(C(=O)N(C)[C@@H](C)C(=O)O)c(C)c3)c2)C(F)F)ccc1Cl (stereo partly drawn) [Example 103, (S)-2-({3′-[1-(4-Chloro-3-methyl-phenyl)-2,2-difluoro-ethylamino]-3,5-dimethyl-biphenyl-4-carbonyl}-methyl-amino)-propionic acid] | 3 nM | 13.9%
CC[C@H](c1ccc(Cl)c(C)c1)N(C)c1cccc(-c2cc(C)c(C(=O)N(C)[C@@H](C)C(=O)O)c(C)c2)c1 [Example 105, (S)-2-[(3′-{[(R)-1-(4-Chloro-3-methyl-phenyl)-propyl]-methyl-amino}-3,5-dimethyl-biphenyl-4-carbonyl)-methyl-amino]-propionic acid] | 10 nM | 20.9%
Cc1cc([C@H](Nc2cccc(-c3cc(C)c(C(=O)N[C@@H](C)C(=O)O)c(C)c3)c2)C(F)(F)F)ccc1Cl [Example 106, (S)-2-({3′-[(S)-1-(4-Chloro-3-methyl-phenyl)-2,2,2-trifluoro-ethylamino]-3,5-dimethyl-biphenyl-4-carbonyl}-amino)-propionic acid] | 2 nM | 10.9%
CC[C@H](c1ccc(Cl)c(C)c1)N(C)c1cccc(-c2cc(C)c(C(=O)NC3(C(=O)O)CC3)c(C)c2)c1 [Example 108, 1-[(3′-{[(R)-1-(4-Chloro-3-methyl-phenyl)-propyl]-methyl-amino}-3,5-dimethyl-biphenyl-4-carbonyl)-amino]-cyclopropanecarboxylic acid] | 8 nM | 19.6%
CC[C@@H](Nc1cccc(-c2cc(C)c(C(=O)NC3(C(=O)O)CC3)c(C)c2)c1)c1ccc(Cl)c(C)c1 [Example 109, 1-({3′-[(R)-1-(4-Chloro-3-methyl-phenyl)-propylamino]-3,5-dimethyl-biphenyl-4-carbonyl}-amino)-cyclopropanecarboxylic] | 2 nM | 19.1%
Cc1cc([C@H](Nc2cccc(-c3cc(C)c(C(=O)NC4(C(=O)O)CC4)c(C)c3)c2)C(F)(F)F)ccc1Cl [Example 112, 1-({3′-[(S)-1-(4-Chloro-3-methyl-phenyl)-2,2,2-trifluoro-ethylamino]-3,5-dimethyl-biphenyl-4-carbonyl}-amino)-cyclopropanecarboxylic acid] | 2 nM | 18.3%
